Test results published in publication PMC12951551, “Do Amino-Oxetanes Resemble Amides? A Matched Molecular Pairs Property and Structural Comparison” (Journal of Medicinal Chemistry, 2026).
Converted amounts (≈) assume the structure as drawn.

What was measured:
[1] = tested on: human hepatocytes; test: Human Hepatocyte (HHEP) stability assay, clearance; format: in vitro ADME; settings: for HHEPG clearance: human hepatocytes, 0.5 million cells/mL, 1 µM test compound
Experimental: Human Hepatocyte (HHEP) assay: The high throughput HHEP stability assay was performed in a 384-well format (Greiner Bio-One, Monroe, NC). The cryopreserved HHEP were thawed, and re-suspended in Williams E medium (WEM, custom formula number 91-5233EC; Invitrogen, Grand Island, NY) supplemented with HEPES and Na2CO3. The cells were counted using the Trypan Blue exclusion method. A multidrop liquid dispenser (Multidrop DW, Thermo Scientific, Waltham, MA) was used to add the HHEP suspensions to the 384-well plates. The cell plates were covered and transferred to a Cytomat 2 incubator (ThermoFisher) and Biomek i7 (Beckman Coulter, Indianapolis, IN), equipped with three 3position MéCour heat exchangers. Test compounds were diluted on the Biomek i7 with buffer (15 µL) and added to the HHEP (30 µL). The final incubation contained 0.5 million cells/mL and 1 µM test compound in 45 µL total volume containing 0.01% DMSO. The incubation was carried out at 37 °C in the Cytomat 2 incubator (relative humidity ≥ 90%, 5% CO2/95% air). At various time points (2, 4, 11, 45, 75, 120, and 240 min), the plate was pulled out from the incubator by the Biomek i7 robot and put on the MéCour heated exchanger. Samples (3 µL) were transferred to a 384-well plate containing 30 µL acetonitrile with an internal standard (IS) to quench the reaction. Water (60 µL) was added to the quenched plate to dilute the organic solvent content for LC-MS/MS analysis. The plates were centrifuged at 3000 rpm for 10 min at 4 °C, sealed and subsequently analyzed using LC-MS/MS without further transfer of the supernatant.
Propranolol (CYP2D6), midazolam (CYP3A) and triazolam (CYP3A, low clearance), naloxone (UGT2B7), carbazeran (AO), and verapamil (CYP3A, CYP2C8) were used as positive controls. For CYP inhibition study, 1 mM ABT (a pan-cYP inhibitor) was pre-incubated with HHEP for 30 minutes at 37 °C before adding test compounds. Values are n >3 unless […]
(§1) Permeability assay (RRCK): Ralph Russ canine kidney cells were used for permeability measurements using a cell monolayer in 96-transwell format. The detailed assay conditions have been reported previously.9 Test compounds were added to the donor wells and a buffer was added to the receiver wells to start the apical to basolateral transport assay.
(§2) Time 0 and 1.5 h incubation samples were taken for LC-MS/MS analysis. Apparent permeability (Papp) was calculated using the equation below (1), where Area is the surface area of the cell monolayer (0.0625 cm2), CD(0) is the […]

[2] = Permeability assay (RRCK); format: in vitro ADME, canine; settings: dog, MDCK, apical to basolateral, average of 2 runs, footnote b = only one replicate
[3] = Kinetic solubility; format: physicochemical; settings: for solubility at 24 h: aqueous pH buffer, aqueous buffer, kinetic from dmso stock, 37 °C, 600 µM start; for Kinetic solubility, in words: across acidic, neutral, and basic conditions, compared with benzamide counterpart
Experimental: Aqueous buffer preparation: pH 3: 50 µL of 1N hydrochloric acid was added to 500 mL of deionized water. The solution was titrated with 1N hydrochloric acid to pH 3, and back titrated with 1N sodium hydroxide. pH 7.4: 100 mM sodium phosphate buffer is made by adding 56.4 g of dibasic sodium phosphate and 10.3 g of monobasic sodium phosphate to 4 L of deionized water. 250 µL of 100 mM sodium phosphate buffer was diluted with 250 µL of deionized water. The solution was titrated with 1N hydrochloric acid to pH 7.4, and back titrated with 1N sodium hydroxide. pH 10: Fisher Scientific pH 10 buffer (SB116-500) containing potassium hydroxide, potassium carbonate, and potassium […]
pH 12.8: 30 mL of 1N NaOH was added to 200 mL of deionized water. The solution was titrated with 1N sodium hydroxide to pH 12.8 and back titrated with 1N hydrochloric acid.
Kinetic solubility: Samples were diluted to 600 µM in the appropriate pH buffer (pH: 3, 7.4, 10) and to 600 µM (assumed 100% solubility) in a DMSO standard. Samples were mixed thoroughly and incubated at 37 °C for 24 h.
Following incubation, pH samples were transferred to a […] PVDF (low binding) and filtered to remove any precipitate. The filtrate was collected and analyzed via MS/MS. The ratio of MS response (DMSO:pH) is taken and multiplied by the initial 600 µM concentration to determine the concentration (solubility) of the samples in pH buffers. […]
as §1, §2

[4] = Shake flask LogD (SFLogD) assay; format: physicochemical; settings: for logD: pH = 7.4, octanol/water shake flask, average of 2 runs unless otherwise stated
Experimental: as §1, §2

[5] = Experimental pKaH (amine basicity); format: physicochemical
From the text: The influence of basicity is an ongoing rationale for inclusion of the oxetanes in drug candidates, providing the potential to attenuate off-target effects including hERG channel inhibition. […] As comparison against the benzamide analogue is not possible, we instead looked at the head-to-head comparison between amino-oxetane 4a and benzylamine 18 (Figure ).

| SMILES | HHEPG clearance [1] [μL min^−1 million^−1] | Papp at 1.5 h [2] [×10⁻⁶ cm/s] | solubility at 24 h ([3]; pH 3) [µM] | solubility at 24 h ([3]; pH 7.4) [µM] | solubility at 24 h ([3]; pH 10) [µM] | logD [4] | pKa ([5]; Table S2) | pKaH ([5]; text and Figure 6) | Kinetic solubility, in words [3] | Change in SFlogD of the carbonyl-to-oxetane replacement ([4]; pH 7.4, amino-oxetane versus matched benzamide) | HHEPG clearance, in words ([1]; compared with benzamide counterpart) |
| --- | --- | --- | --- | --- | --- | --- | --- | --- | --- | --- | --- |
| COc1ccc(C(=O)NCc2ccccc2)cc1 [2b, N-Benzyl-4-Methoxybenzamide] | 30 | 38.1 | 114 (≈ 27.5 µg/mL) | 91 (≈ 22 µg/mL) | 76 (≈ 18.3 µg/mL) | 2.74 |  |  |  |  |  |
| FC(F)(F)c1ncc(-c2ccc(C3(N4CCOCC4)COC3)cc2)cn1 [11a, 4-(3-(4-(2-(Trifluoromethyl)Pyrimidin-5-yl)Phenyl)Oxetan-3-yl)Morpholine] | < 2 | < 36.1 |  |  |  | 1.66 |  |  |  |  |  |
| COc1ccc(C(=O)NCC23C[C@H]4C[C@@H](C2)C[C@@H](C3)C4)cc1 [1b, N-(((3R,5R,7R)-Adamantan-1-yl)Methyl)-4-Methoxybenzamide] |  | 32.7 | < 0.1 | < 0.1 | < 0.8 | 3.83 |  |  |  |  |  |
| COc1ccc(CN2CCOCC2)cc1 [compound 18, 4-(4-Methoxybenzyl)Morpholine] |  |  |  |  |  |  | 7.25 | 7.25 |  |  |  |
| COc1ccc(C(=O)Nc2ccc3c(c2)OC(F)(F)O3)cc1 [7b, N-(2,2-Difluorobenzo[d][1,3]dioxol-5-yl)-4-Methoxybenzamide] |  | 28.3 | < 0.1 | < 0.1 | < 0.1 | 3.81 |  |  |  |  |  |
| COc1ccc(C(=O)NC(C)C(=O)N(C)C)cc1 (stereo not shown) [3b, N-(1-(Dimethylamino)-1-Oxopropan-2-yl)-4-Methoxybenzamide] | < 2 | 32.2 | 461 (≈ 115 µg/mL) | 574 (≈ 144 µg/mL) | 465 (≈ 116 µg/mL) | 1 |  |  |  |  |  |
| c1cc(C2(N3CCOCC3)COC2)ccc1N1CCOCC1 [12a, 4-(4-(3-Morpholinooxetan-3-yl)Phenyl)Morpholine] | 11 | 39.3 |  |  |  | 0.331 |  |  |  |  |  |
| COc1ccc(C(=O)Nc2ccc(NC(C)=O)cc2)cc1 [6b, N-(4-Acetamidophenyl)-4-Methoxybenzamide] | 57 | 14 | 13 (≈ 3.7 µg/mL) | 10 (≈ 2.84 µg/mL) | 8 (≈ 2.27 µg/mL) | 1.92 |  |  |  |  |  |
| COc1ccc(C2(N[C@@H](C)C(=O)N(C)C)COC2)cc1 [3a, (S)-2-((3-(4-Methoxyphenyl)Oxetan-3-yl)Amino)-N,N-Dimethylpropanamide] | < 3 | 27.3 | 464 (≈ 129 µg/mL) | 472 (≈ 131 µg/mL) | 458 (≈ 127 µg/mL) | 0.418 |  |  | solubility comparable to their analogous benzamides | −0.59 |  |
| O=C(c1ccc(Oc2ccccn2)cc1)N1CCOCC1 [9b, Morpholino(4-(Pyridin-2-yloxy)Phenyl)Methanone] | < 2 | 47.2 |  |  |  | 1.08 |  |  |  |  |  |
| c1ccc(Oc2ccc(C3(N4CCOCC4)COC3)cc2)nc1 [9a, 4-(3-(4-(Pyridin-2-yloxy)Phenyl)Oxetan-3-yl)Morpholine] | 13 | 43.6 |  |  |  | 1.32 |  |  |  |  |  |
| O=C(c1ccc(S(=O)(=O)c2ccccc2)cc1)N1CCOCC1 [10b, Morpholino(4-(Phenylsulfonyl)Phenyl)Methanone] | < 2 | 37.8 |  |  |  | 1.11 |  |  |  |  |  |
| COc1ccc(C2(Nc3ccc(OC)nc3)COC2)cc1 [8a, 6-Methoxy-N-(3-(4-Methoxyphenyl)Oxetan-3-yl)Pyridin-3-Amine] | 42 | 37.2 | 412 (≈ 118 µg/mL) | 358 (≈ 103 µg/mL) | 326 (≈ 93.3 µg/mL) | 2.54 |  |  | higher solubility |  |  |
| COc1ccc(C(=O)N(C2CC2)C2CCN(C(C)=O)CC2)cc1 [5b, N-(1-Acetylpiperidin-4-yl)-N-Cyclopropyl-4-Methoxybenzamide] | < 4 | 31.7 | 465 (≈ 147 µg/mL) | 467 (≈ 148 µg/mL) | 299 (≈ 94.6 µg/mL) | 1.25 |  |  |  |  |  |
| COc1ccc(C2(Nc3ccc4c(c3)OC(F)(F)O4)COC2)cc1 [7a, 2,2-Difluoro-N-(3-(4-Methoxyphenyl)Oxetan-3-yl)Benzo[d][1,3]dioxol-5-Amine] |  |  | 7 (≈ 2.35 µg/mL) | 8 (≈ 2.68 µg/mL) | 12 (≈ 4.02 µg/mL) |  |  |  |  |  | significantly higher clearance than its benzamide counterpart |
| COc1ccc(C2(Nc3ccc(NC(C)=O)cc3)COC2)cc1 [6a, N-(4-((3-(4-Methoxyphenyl)Oxetan-3-yl)Amino)Phenyl)Acetamide] | 112 |  | 509 (≈ 159 µg/mL) | 505 (≈ 158 µg/mL) | 500 (≈ 156 µg/mL) |  |  |  | higher solubility |  |  |
| COc1ccc(C(=O)Nc2ccc(OC)nc2)cc1 [8b, 4-Methoxy-N-(6-Methoxypyridin-3-yl)Benzamide] | 13 | 20.9 | 50 (≈ 12.9 µg/mL) | 31 (≈ 8.01 µg/mL) | 24 (≈ 6.2 µg/mL) | 2.49 |  |  |  |  |  |
| COc1ccc(C2(N(C3CC3)C3CCN(C(C)=O)CC3)COC2)cc1 [5a, 1-(4-(Cyclopropyl(3-(4-Methoxyphenyl)Oxetan-3-yl)Amino)Piperidin-1-yl)Ethan-1-One] | 38 | 38.8 | 299 (≈ 103 µg/mL) | 223 (≈ 76.8 µg/mL) | 195 (≈ 67.2 µg/mL) | 1.68 |  |  |  |  |  |
| O=C(c1ccc(-c2cnc(C(F)(F)F)nc2)cc1)N1CCOCC1 [11b, Morpholino(4-(2-(Trifluoromethyl)Pyrimidin-5-yl)Phenyl)Methanone] | < 2 | 43.2 |  |  |  | 1.31 |  |  |  |  |  |
| O=C(c1ccc(N2CCOCC2)cc1)N1CCOCC1 [12b, 4-Morpholinonebenzene-4-Yl-Morpholine] | < 2 | 36.4 |  |  |  | 0.444 |  |  |  |  |  |
| COc1ccc(C(=O)N2CCOCC2)cc1 [4b, (4-Methoxyphenyl)(Morpholino)Methanone] | < 3 | 48.3 | 461 (≈ 102 µg/mL) | 574 (≈ 127 µg/mL) | 465 (≈ 103 µg/mL) | 0.823 |  |  |  |  |  |
| COc1ccc(C2(NCc3ccccc3)COC2)cc1 [2a, N-Benzyl-3-(4-Methoxyphenyl)Oxetan-3-Amine] | 62 | 36.5 | 521 (≈ 140 µg/mL) | 359 (≈ 96.7 µg/mL) | 285 (≈ 76.8 µg/mL) | 2.49 |  |  | higher solubility |  |  |
